Experimental data taken from US10017713B2, “Fluorinated surfactant containing compositions” (3M INNOVATIVE PROPERTIES COMPANY, priority 2014, dated 2018).

Experiments:
[1] = Cleaning performance: % particle removal from heavily soiled CMOS sensors
Method: A study was conducted using Novec 7100 and Novec 71IPA base solvents with and without the soluble surfactants identified above to determine the impact of dissolved surfactant on cleaning performance of the fluids. In some cases a single surfactant was employed. In other cases a mixture of two surfactants was employed. In all cases the total concentration of fluorochemical surfactant employed was 0.20 wt % (or 2000 ppm) in the base fluid. Cleaning results were compared to pure Novec fluid controls containing no surfactant. The cleaning trials were performed on heavily soiled CMOS sensors containing a high pixel density. These sensors are known to be extremely difficult to clean such that they are essentially free of (particle contaminants.
A precision solvent cleaning system (SK-04Y-6008 customized cleaning system from YMPT, Thailand) was used to clean the CMOS sensors using the process outlined below.
The cleaning performance of each cleaning fluid composition was judged based on the percentage of particles originally present on the CMOS surface that were removed by the cleaning fluid after completion of the cleaning process. The percentage of particles removed was determined by optical microscopy inspection of the CMOS sensors before and after cleaning.
The original (heavily soiled) CMOS sensor was first inspected using an optical microscope and a series of Pre-Clean images were recorded. The CMOS sensor was then cleaned in the precision cleaning system using the process described above and the proscribed solvent/surfactant combination. After cleaning, the CMOS sensor was inspected again by optical microscopy and a Post-Clean image recorded to determine particle counts remaining on the sensor. In this way, the % removal of particles after cleaning of CMOS sensors was determined.

[2] = Surfactant solubility in hydrofluoroether (HFE) solvents by visual clarity; assay type: physicochemical
Method: A series of C4F9SO2N-based fluorochemical surfactants were examined to determine their solubility in various hydrofluoro ether (HFE) solvents, including four segregated HFEs (Novec 7100, 7200, 7300, and 7500 available from 3M Company, St Paul, Minn.), one non-segregated HFE (PF-7600 available from 3M Company), and one HFE-Alcohol blend (Novec 71IPA available from 3M Company). Solubility was determined by preparing mixtures of each surfactant in the solvent at various concentrations and determining solubility at each concentration by visual inspection based on the clarity of the solutions after thorough mixing at room temperature. Surfactants that were not completely soluble at a given concentration produced hazy mixtures, whereas surfactants that were completely soluble at a given concentration produced clear homogeneous solutions with no haze. The highest concentration of each surfactant to give a clear, homogeneous solution in each HFE solvent (expressed as wt % surfactant dissolved in HFE solvent) was taken as the maximum solubility.

[3] = Novec 71IPA, total surfactant 0.20 wt %
[4] = Novec 71IPA, room temperature (23° C.)
[5] = Novec 7100, room temperature (23° C.)
[6] = Novec 7200, room temperature (23° C.)
[7] = Novec 7300, room temperature (23° C.)
[8] = Novec 7500, room temperature (23° C.)
[9] = PF-7600, room temperature (23° C.)

Row | Compound | % Removal (Percent Particle Removal) [1, 3] | % Removal (Percent Particle Removal) ([1]; Novec 7100, surfactant 0.2 %) | Max. Solubility [2, 4] [wt %] | Max. Solubility [2, 5] [wt %] | Max. Solubility [2, 6] | Max. Solubility [2, 7] | Max. Solubility [2, 8] [wt %] | Max. Solubility [2, 9] | melting point [°C] | solubility in HFE solvents ([2]; room temperature)
1 | O=S(=O)(N(CCOCCO)CCOCCO)C(F)(F)C(F)(F)C(F)(F)C(F)(F)F [FBS(EE)2 (IV), C4F9SO2N(CH2CH2OCH2CH2OH)2] | 50-80% | 50-80% | >10 | >10 | 0.2-0.5 wt % | 0.2-0.3 wt % | 0.2 | 8-9 wt % | – | –
2 | O=S(=O)(N(CCO)CCOCCO)C(F)(F)C(F)(F)C(F)(F)C(F)(F)F [FBSE(EE) (V), C4F9SO2N(CH2CH2OCH2CH2OH) (CH2CH2OH)] | 90-100% | 90-100% | >10 | 1.5 | 0.8 wt % | 0.9 wt % | 0.2 | >10 wt % | 45.1 | –
3 | O=S(=O)(NCCO)C(F)(F)C(F)(F)C(F)(F)C(F)(F)F [H-FBSE (X), C4F9SO2NH(CH2CH2OH)] | 50-80% | – | >10 | 0.21 | 0.16 wt % | 0.06 wt % | – | 1.5 wt % | – | –
4 | C4F9SO2N(CH3)(CH2CH2O)7CH3 [FC-4171 (XI), reference compound] | 50-80% | 50-80% | >10 | >10 | >10 wt % | 0.5 wt % | 0.1 | >10 wt % | – | –
5 | CC(O)CN(CCO)S(=O)(=O)C(F)(F)C(F)(F)C(F)(F)C(F)(F)F (stereo not drawn) [FBSEP (VIII), C4F9SO2N(CH2CH2OH)CH2CH(CH3)OH] | – | – | >10 | 4.0 | – | 1.4 wt % | – | >10 wt % | – | improved solubility
6 | O=S(=O)(NCCOCCO)C(F)(F)C(F)(F)C(F)(F)C(F)(F)F [H-FBS(EE) (III), C4F9SO2N(H)CH2CH2OCH2CH2OH] | 50-80% | 50-80% | >10 | >10 | >10 wt % | >10 wt % | >10 | >10 wt % | 35.7 | –
7 | O=S(=O)(N(CCO)CCO)C(F)(F)C(F)(F)C(F)(F)C(F)(F)F [FBSEE (IX), C4F9SO2N(CH2CH2OH)2] | 90-100% | – | 8.1 | 0.06 | 0.04 wt % | 0.03 wt % | – | 0.6 wt % | – | –
